“Also recorded” adds a separate entry of the source. Read-outs that look alike come from different tables or passages of the source.
System: viral NA of influenza A/H1N1
Format: biochemical, influenza A/H1N1 virus

SMILES | resistance of influenza A/H1N1 isolates | sensitivity or resistance of isolates by IC50 criteria | sensitivity or resistance of isolates by IC50 criteria (A/H1N1, first study period, both groups, […]) | sensitivity or resistance of isolates by IC50 criteria (A/H1N1, second study period, both groups, […])
CC(=O)N[C@H]1[C@H]([C@H](O)[C@H](O)CO)OC(C(=O)O)=C[C@@H]1N=C(N)N [Zanamivir] | no zanamivir resistance | sensitivity; also recorded: sensitive |  | 
CCOC(=O)C1=C[C@@H](OC(CC)CC)[C@H](NC(C)=O)[C@@H](N)C1 [Oseltamivir] |  |  | sensitivity | high-level drug resistance

Reference: article PMC3641313 (Korean Journal of Pediatrics, 2013)
